One data set concerns HCT116 p53+/+. The experiment in a line: 96 h MTT chemosensitivity assay. The class given is cell-based, human. The method, then: (§1) LogP = Log ( [C]final ) Eqn1
(§2) 96 h Chemosensitivity Studies
(§3) In vitro chemosensitivity tests were performed at both the University of Huddersfield and the Institute of Cancer Therapeutics, Bradford, in a sterile Class II Biological Safety Cabinet fitted with a HEPA filtered laminar airflow.
(§4) Cellular assays were conducted against human pancreatic carcinoma (MIA PaCa-2), human colorectal carcinoma p53-wildtype (HCT116 p53+/+), and human non-cancerous epithelial retinal cells (ARPE-19). The ARPE-19 cells were obtained from the American Type Culture Collection and provided by the University of Huddersfield. All cell lines were routinely maintained as monolayer cultures in appropriate complete medium and maintained in either T-25 or T-75 flasks at 37 °C and 5% CO2. MIA PaCa-2 and ARPE-19 cells were cultured in high glucose DMEM-F12 medium containing 10% foetal calf serum, and HCT116 p53+/+ was cultured in RPMI 1640 supplemented with 10% foetal calf serum. All medium was supplemented with sodium pyruvate (1 mM) and L-glutamine (2 mM), and prior to chemosensitivity studies, cell monolayers were passaged using Trypsin-EDTA and diluted to a concentration of 1 x 10^4 cells/mL. All assays were conducted using 96-well plates, in which 100 mL of the 1 x 10^4 cells/mL cell suspension was added to each well and incubated for 24 h at 37 °C and 5% CO2. After 24 h, 100 mL of drug dilutions (fresh 100 mM stock solutions in DMSO) in media were added to the plates and then incubated for a further 96 h at 37°C and 5% CO2 (48 h + 48 h recovery period were used for the shorter exposures with MIA PaCa-2 cells only). After 96 h, 20 mL MTT (3-(4,5-dimethylthiazol-2-yl)-2,5-diphenyltetrazolium bromide, 5 mg/mL) was added to each well and incubated for 3 h at 37 °C and 5% CO2. All solutions were then removed from the 96-well plates via pipette and 150 mL of DMSO added to each well to dissolve the purple formazan crystals. After mixing well, the absorbance of each well was measured at 540 nm using a ThermoFisher Multiskan FC spectrophotometer microplate reader. Using the blank and 100% cell controls, the % cell viability was determined [(abs. of compound containing wells – abs. media wells)/(abs. 100% cell suspension well control)] and from this the % cell death (100%- % cell viability) was calculated. On a logarithmic scale, the percentage cell death was plotted against the concentration of compound, and from this the half maximal inhibitory concentration (IC50) value was determined. Each of the experiments were performed in triplicate with mean values being stated as the IC50 ± Standard Deviation (SD). […]
(§5) All assays were conducted in triplicate.
On the technique in general: Tetrazolium dyes change colour on reduction, which living cells bring about.

The next data set has as its system ARPE-19. The experiment in a line: 96 h MTT chemosensitivity assay, normal cells. The class given is cell-based, human. Particulars: normal retinal epithelial cells, ± SD, read-out: IC50 against ARPE-19. The method, then: as §1, §2, §3
as §4, with “After 24 h, 100 mL of drug dilutions (fresh 100 mM stock solutions in DMSO) in media were added to the plates and then incubated for a further 96 h at 37°C and 5% CO2 (48 h + 48 h recovery period were used for the shorter exposures with MIA PaCa-2 cells only). After 96 h, 20 mL MTT (3-(4,5-dimethylthiazol-2-yl)-2,5-diphenyltetrazolium bromide, 5 mg/mL) was added to each well and incubated for 3 h at 37 °C and 5% CO2. All solutions were then removed from the 96-well plates via pipette and 150 mL of DMSO added to each well to dissolve the purple formazan crystals.” left out, “determined.” for “determined. Each of the experiments were performed in triplicate with mean values being stated as the IC50 ± Standard Deviation (SD).”

The next data set deals with MIA PaCa-2. The experiment in a line: Chemosensitivity under hypoxic conditions (0.1% O2, 96 h MTT). The class given is cell-based, human. The method, then: as §1, §2, §3
as §4, with “After 24 h, 100 mL of drug dilutions (fresh 100 mM stock solutions in DMSO) in media were added to the plates and then incubated for a further 96 h at 37°C and 5% CO2 (48 h + 48 h recovery period were used for the shorter exposures with MIA PaCa-2 cells only). After 96 h, 20 mL MTT (3-(4,5-dimethylthiazol-2-yl)-2,5-diphenyltetrazolium bromide, 5 mg/mL) was added to each well and incubated for 3 h at 37 °C and 5% CO2. All solutions were then removed from the 96-well plates via pipette and 150 mL of DMSO added to each well to dissolve the purple formazan crystals.” left out, “determined.” for “determined. Each of the experiments were performed in triplicate with mean values being stated as the IC50 ± Standard Deviation (SD).”

A short description of data set [1]: Hydrophobicity, octanol-water shake-flask. The class given is physicochemical. The method, then: curves to give an average concentration for shaken samples ([C]final). The concentration of an unshaken sample
of stock solution was determined to give [C]initial. The partition coefficient (LogP) was determined with by Eqn1. […]
as §5

Consider 1 compound from publication PMC10428205, “Cytotoxicity of Ruthenium(II) Arene Complexes Containing Functionalized Ferrocenyl β-Diketonate Ligands” (Organometallics, 2023).

Molecules are shown by their SMILES.

What is called LogP is a log measure of how a compound divides between an organic and an aqueous phase. Low readings indicate lower lipophilicity, high ones higher lipophilicity. Regarding `[NH2][Pt]([NH2])([Cl])[Cl]` [CDDP, cisplatin, reference compound], the “Selectivity index (SI), IC50 ARPE-19 / IC50 HCT116 p53+/+” value with HCT116 p53+/+ (96 h, * = minimum value as at least one IC50 > 100) was 1.8. Further, the IC50 with HCT116 p53+/+ (96 h MTT, ± SD, read-out: IC50 against HCT116 p53+/+) was 3.3 ± 0.4 µM; with ARPE-19 it was 6 ± 1 µM; in the data set with MIA PaCa-2 (MIA PaCa-2, 0.1% O2, 96 h MTT) it was over 50 µM. Moreover, the “fold loss of activity from normoxic to hypoxic conditions” value in the data set on MIA PaCa-2 (MIA PaCa-2, 21% vs 0.1% O2) was over 14 fold. For the same compound, the LogP in data set [1] is -2.20 ± 0.20.
